Columns and labels:
[1] = target: T1, KRAS(G12V)/SOS1 (Homo sapiens, UniProt P01116, G12V); experiment: KRAS(G12V)/SOS1 homogeneous time-resolved fluorescence (HTRF) assay; type: binding; details: absence of GTP; 4° C., 3 hours; read-out: HTRF of KRASG12V-SOS1
T1 construct: purchased Cisbio 63ADK000CB18PEH
Method: Binding of test compounds to KRAS(G12V) target protein, which in turn blocks KRAS(G12V) interaction with the SOS1 protein, was measured in the absences of GTP by homogeneous time-resolved fluorescence using the KRAS-G12V/SOS1 Binding Assay Kit (Cisbio, 63ADK000CB18PEH), following the manufacturer's instructions, except as noted. 3-fold serial dilutions of each test compound were prepared ranging from 20 µM to 1.02 nM. The test compound was mixed and incubated with reaction components, incubated in a sealed plate at 4° C. for 3 hours and fluorescence was measured using a PerkinElmer Envision plate reader. The KRAS(G12V)-SOS1 IC50 values (the concentration of 50% of the maximal inhibition) were calculated using GraphPad Prism 8.0 software.

[2] = system: SW620 cells; experiment: Cancer cell line proliferation (CellTiter-Glo), SW620; type: cell-based; details: Homo sapiens, SW-620, SW620 colorectal adenocarcinoma, homozygous G12V, 72 hr
Method: Cell lines were cultured essentially according to ATCC recommendations. SW620 and NCIH727 cells were plated in 384-well tissue culture plates at 1,000 cells/well and incubated at 37° C./5% CO2 for 72 hr in 40 μl of media. […] Each cell line was then treated with test compounds at various concentrations with a final concentration of 0.5% DMSO/well, and then incubated at 37° C./5% CO2 for 72 hr. 40 μl of CellTiter-Glo® Reagent (Promega Corporation, Madison, WI) was added to each well and processed according manufacturer's protocol. Results were analyzed and IC50 values were calculated in GraphPad 8.0 software.

[3] = system: NCIH727 cells; experiment: Cancer cell line proliferation (CellTiter-Glo), NCI-H727; type: cell-based; details: Homo sapiens, 72 h, NCIH727 lung carcinoid, heterozygous G12V
How it was run: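 NCI-H727 cells (1,000/well) were grown 72 h at 37 °C/5% CO2, then exposed to compound at various concentrations (0.5% DMSO final) for a further 72 h. Viability was read by CellTiter-Glo luminescence, and IC50 values were calculated from the dose-response.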

T1 sequence (P01116 1-188 isoform P01116-2 G12V): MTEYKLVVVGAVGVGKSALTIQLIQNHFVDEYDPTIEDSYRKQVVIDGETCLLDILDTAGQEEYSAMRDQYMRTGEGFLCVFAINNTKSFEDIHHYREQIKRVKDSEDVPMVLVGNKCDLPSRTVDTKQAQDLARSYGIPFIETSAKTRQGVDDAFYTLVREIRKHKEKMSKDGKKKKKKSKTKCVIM

Compound | IC50 [1] | EC50 [2] | EC50 [3]
C#Cc1c(F)ccc2cc(O)cc(-c3nc(OC)c4c(N5CC6CCC(C5)N6C(=O)NCC(F)(F)F)nc(OCC5(CN6CCC(F)CC6)CC5)nc4c3F)c12 [Example 26] | < 0.1 µM | > 1 µM | 0.1 to 1 µM
C#Cc1c(F)ccc2cc(O)cc(-c3nc(OC)c4c(N5CC6CCC(C5)N6C(=O)NCC#N)nc(OCC5(CN6CC7CC7C6)CC5)nc4c3F)c12 (stereo not drawn) [Example 104] |  | 0.1 to 1 µM | 0.1 to 1 µM
C#Cc1c(F)ccc2cc(O)cc(-c3ncc4c(N5CC6CCC(C5)N6C(=O)CCC#N)nc(OCC5(CN6CCC(F)CC6)CC5)nc4c3F)c12 [Example 3] | < 0.1 µM | 0.1 to 1 µM | > 1 µM
C#Cc1c(F)ccc2cc(O)cc(-c3ncc4c(N5CC6CCC(C5)N6C(=O)[C@H]5CCN(C(=O)OC)C5)nc(OCC5(CN6CCC(F)CC6)CC5)nc4c3F)c12 [Example 36] | 0.1 to 1 µM | > 1 µM | > 1 µM
C#Cc1c(F)ccc2cc(O)cc(-c3ncc4c(N5CC6CCC(C5)N6C(=O)OC(C)C)nc(OCC5(CN6CCC(F)CC6)CC5)nc4c3F)c12 [Example 42] | 0.1 to 1 µM | > 1 µM | > 1 µM
C#Cc1c(F)ccc2cc(O)cc(-c3ncc4c(N5CC6CCC(C5)N6C(=O)C5(C(F)(F)F)CC5)nc(OCC5(CN6CCC(F)CC6)CC5)nc4c3F)c12 [Example 22] | 0.1 to 1 µM | > 1 µM | > 1 µM
C#Cc1c(F)ccc2cc(O)cc(-c3nc(OC)c4c(N5CC6CCC(C5)N6C(=O)NCC(F)(F)F)nc(OCC5(CN6CC7CC7C6)CC5)nc4c3F)c12 (stereo not drawn) [Example 129] |  | 0.1 to 1 µM | < 0.1 µM
C#Cc1c(F)ccc2cc(O)cc(-c3nc(OC)c4c(N5CC6CCC(C5)N6C(=O)C(C)C(F)(F)F)nc(OCC5(CN6CCC(F)CC6)CC5)nc4c3F)c12 (stereo not drawn) [Example 52] | < 0.1 µM | > 1 µM | > 1 µM
C#Cc1c(F)ccc2cc(O)cc(-c3nc(OC)c4c(N5CC6CCC(C5)N6C(=O)NCC#N)nc(OCC5(CN6CCC(F)CC6)CC5)nc4c3F)c12 [Example 37] | 0.1 to 1 µM | 0.1 to 1 µM | 0.1 to 1 µM
C#Cc1c(F)ccc2cc(O)cc(-c3ncc4c(N5CC6CCC(C5)N6C(=O)CC(C)(C)C)nc(OCC5(CN6CCC(F)CC6)CC5)nc4c3F)c12 [Example 5] | 0.1 to 1 µM | > 1 µM | > 1 µM
C#CCCC(=O)N1C2CCC1CN(c1nc(OCC3(CN4CCC(F)CC4)CC3)nc3c(F)c(-c4cc(O)cc5ccc(F)c(C#C)c45)ncc13)C2 [Example 47] | < 0.1 µM | > 1 µM | > 1 µM
C#Cc1c(F)ccc2cc(O)cc(-c3nc(OC)c4c(N5CC6CCC(C5)N6C(=O)CCOC(F)(F)F)nc(OCC5(CN6CC7CC7C6)CC5)nc4c3F)c12 (stereo not drawn) [Example 147] |  | 0.1 to 1 µM | 0.1 to 1 µM
C#Cc1c(F)ccc2cc(O)cc(-c3nc(OC)c4c(N5CC6CCC(C5)N6C(=O)CCC#N)nc(OCC5(CN6CC7CC7C6)CC5)nc4c3F)c12 (stereo not drawn) [Example 99] |  | 0.1 to 1 µM | < 0.1 µM
C#Cc1c(F)ccc2cc(O)cc(-c3nc(OC)c4c(N5CC6CCC(C5)N6C(=O)CC(C)C#N)nc(OCC5(CN6CC7CC7C6)CC5)nc4c3F)c12 (stereo not drawn) [Example 140] |  | 0.1 to 1 µM | < 0.1 µM
[2H]C([2H])([2H])Oc1nc(-c2cc(O)cc3ccc(F)c(C#C)c23)c(F)c2nc(OCC3(CN4CC5CC5C4)CC3)nc(N3CC4CCC(C3)N4C(=O)C(C)(C)C#N)c12 (stereo not drawn) [Example 119] | < 0.1 µM |  | > 1 µM
C#Cc1c(F)ccc2cc(O)cc(-c3nc(OC)c4c(N5CC6CCC(C5)N6C(=O)C(C#N)CC#N)nc(OCC5(CN6CC7CC7C6)CC5)nc4c3F)c12 (stereo not drawn) [Example 109] |  | 0.1 to 1 µM | 0.1 to 1 µM
C#Cc1c(F)ccc2cc(O)cc(-c3ncc4c(N5CC6CCC(C5)N6C(=O)NC5CCOC5)nc(OCC5(CN6CCC(F)CC6)CC5)nc4c3F)c12 (stereo not drawn) [Example 9] | < 0.1 µM |  | > 1 µM
C#Cc1c(F)ccc2cc(O)cc(-c3nc(OC)c4c(N5CC6CCC(C5)N6C(=O)NC(C)C#N)nc(OCC5(CN6CC7CC7C6)CC5)nc4c3F)c12 (stereo not drawn) [Example 105] |  | 0.1 to 1 µM | < 0.1 µM

From patent publication US20260200946A1, “KRAS(G12V) INHIBITORS” (Ranok Therapeutics (Hangzhou) Co. Ltd., priority 2022, published 2026)
